According to PubChem BioAssay AID248 (DTP/NCI, 2004):
“And” between values parts separate entries of the source, which are not always exact repeats. Identical values can stand only once. Inconclusive results and toxic doses are left out. No stated cut-off is given here; in the data, active means T/C of 150% or more; inactive means T/C below 125%.

Test system: L1210 leukemia ip in BDF1 mice, survival T/C
Assay: NCI In Vivo Anticancer Drug Screen. Data for tumor model L1210 Leukemia (intraperitoneal) in B6D2F1 (BDF1) mice
Settings: endpoint: mean survival time, higher = longer survival
Procedure, shortened: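 In this screen, tumor-bearing mice given compound are compared to those given vehicle, and their survival values are reported as a treated-to-control quotient.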

[1] = dose: 100.0 mg/kg/injection, schedule: Q01DX001 (ip), vehicle: Klucel (hydroxypropylcellulose) (HPC)
[2] = dose: 200.0 mg/kg/injection, schedule: Q01DX001 (ip), vehicle: Klucel (hydroxypropylcellulose) (HPC)
[3] = dose: 400.0 mg/kg/injection, schedule: Q01DX001 (ip), vehicle: Klucel (hydroxypropylcellulose) (HPC)
[4] = dose: 100.0 mg/kg/injection, schedule: Q04DX003 (ip), vehicle: saline with Tween-80
[5] = dose: 200.0 mg/kg/injection, schedule: Q04DX003 (ip), vehicle: saline with Tween-80
[6] = dose: 400.0 mg/kg/injection, schedule: Q04DX003 (ip), vehicle: saline with Tween-80
[7] = dose: 100.0 mg/kg/injection, schedule: Q04DX002 (ip), vehicle: Klucel (hydroxypropylcellulose) (HPC)
[8] = dose: 200.0 mg/kg/injection, schedule: Q04DX002 (ip), vehicle: Klucel (hydroxypropylcellulose) (HPC)
[9] = dose: 400.0 mg/kg/injection, schedule: Q04DX002 (ip), vehicle: Klucel (hydroxypropylcellulose) (HPC)
[10] = dose: 100.0 mg/kg/injection, schedule: Q04DX002 (ip), vehicle: saline with Tween-80
[11] = dose: 100.0 mg/kg/injection, schedule: Q04DX003 (ip), vehicle: saline
[12] = dose: 100.0 mg/kg/injection, schedule: Q04DX003 (ip), vehicle: Klucel (hydroxypropylcellulose) (HPC)
[13] = dose: 200.0 mg/kg/injection, schedule: Q04DX003 (ip), vehicle: Klucel (hydroxypropylcellulose) (HPC)
[14] = dose: 400.0 mg/kg/injection, schedule: Q04DX003 (ip), vehicle: Klucel (hydroxypropylcellulose) (HPC)
[15] = dose: 200.0 mg/kg/injection, schedule: Q04DX002 (ip), vehicle: saline with Tween-80
[16] = dose: 400.0 mg/kg/injection, schedule: Q04DX002 (ip), vehicle: saline with Tween-80

Measured: T/C

CS(=O)(=O)OC1C2(c3ccccc3)C=CCC1(c1ccccc1)C(c1ccccc1)=C2c1ccccc1 (centres undefined)
inactive: [1] 98 % of control | [2] 101 % of control | [3] 98 % of control

O=C1/C(=C2\CCc3ccccc32)Cc2ccccc21
inactive: dose: 12.5 mg/kg/injection, schedule: Q04DX002 (ip), vehicle: saline 99 % of control | dose: 25.0 mg/kg/injection, schedule: Q04DX002 (ip), vehicle: saline 96 % of control | dose: 50.0 mg/kg/injection, schedule: Q04DX002 (ip), vehicle: saline 96 % of control

Cn1nnnc1/C(=C/c1ccccc1)C(=O)O
inactive: [4] 95 % of control | [5] 95 % of control | [6] 90 % of control

O=S1OCCS1 (centres undefined)
inactive: dose: 13.0 mg/kg/injection, schedule: Q01DX Z (sc), vehicle: saline 100 % of control | dose: 36.0 mg/kg/injection, schedule: Q01DX Z (sc), vehicle: saline 100 % of control

O=P(O)(CCP(=O)(O)c1ccccc1)c1ccccc1
inactive: [7] 95 % of control | [8] 91 % of control | [9] 106 % of control

COc1ccc2ccccc2c1-c1c([N+](=O)[O-])ccc2ccccc12
inactive: dose: 12.5 mg/kg/injection, schedule: Q04DX002 (ip), vehicle: saline with Tween-80 97 % of control | dose: 25.0 mg/kg/injection, schedule: Q04DX002 (ip), vehicle: saline with Tween-80 90 % of control | dose: 50.0 mg/kg/injection, schedule: Q04DX002 (ip), vehicle: saline with Tween-80 87 % of control | [10] 93 % of control

O=C(CCCl)[O][Pb]([O]C(=O)CCCl)([c]1ccccc1)[c]1ccccc1
inactive: [11] 108 % of control

S=c1c2[nH]cnc2ncn1C1CCCCC1
inactive: dose: 4.4 mg/kg/injection, schedule: Q01DX009 (ip), vehicle: saline with Tween-80 96 % of control | dose: 6.7 mg/kg/injection, schedule: Q01DX009 (ip), vehicle: saline with Tween-80 102 % of control | dose: 10.0 mg/kg/injection, schedule: Q01DX009 (ip), vehicle: saline with Tween-80 90 % of control | dose: 15.0 mg/kg/injection, schedule: Q01DX009 (ip), vehicle: saline with Tween-80 95 % of control

COc1ccc(/C=C2\N=C(c3cc(OC)c(OC)c(OC)c3)OC2=O)cc1OC
inactive: [7] 123 % of control | [8] 101 % of control | [9] 101 % of control

COc1cc(C(C)=O)ccc1OS(C)(=O)=O
inactive: dose: 20.0 mg/kg/injection, schedule: Q01DX009 (ip), vehicle: Klucel (hydroxypropylcellulose) (HPC) 100 % of control | dose: 20.0 mg/kg/injection, schedule: Q04DX003 (ip), vehicle: Klucel (hydroxypropylcellulose) (HPC) 106 % of control | dose: 40.0 mg/kg/injection, schedule: Q01DX009 (ip), vehicle: Klucel (hydroxypropylcellulose) (HPC) 98 % of control | dose: 40.0 mg/kg/injection, schedule: Q04DX003 (ip), vehicle: Klucel (hydroxypropylcellulose) (HPC) 93 % of control | dose: 80.0 mg/kg/injection, schedule: Q01DX009 (ip), vehicle: Klucel (hydroxypropylcellulose) (HPC) 96 % of control | dose: 80.0 mg/kg/injection, schedule: Q04DX003 (ip), vehicle: Klucel (hydroxypropylcellulose) (HPC) 98 % of control

CCCCCCCCCC(=O)N1CCOCC1
inactive: dose: 25.0 mg/kg/injection, schedule: Q01DX009 (ip), vehicle: saline 98 % of control | dose: 25.0 mg/kg/injection, schedule: Q04DX003 (ip), vehicle: saline 97 % of control | dose: 50.0 mg/kg/injection, schedule: Q01DX009 (ip), vehicle: saline 113 % of control | dose: 50.0 mg/kg/injection, schedule: Q04DX003 (ip), vehicle: saline 101 % of control | [11] 94 % of control and 89 % of control

COC1OC(CI)C(OS(C)(=O)=O)C(OC(=O)c2ccccc2)C1OC(=O)c1ccccc1 (centres undefined)
inactive: [7] 91 % of control | [8] 97 % of control

C#CC(O)C1OC(C)(C)OC1C1COC(C)(C)O1 (centres undefined)
inactive: [12] 97 % of control | [13] 92 % of control | [14] 94 % of control

COC1OC(COS(=O)OC)C(O)C(O)C1OS(=O)OC (centres undefined)
inactive: dose: 100.0 mg/kg/injection, schedule: Q01DX001 (ip), vehicle: carboxymethylcellulose (CMC) 100 % of control | dose: 200.0 mg/kg/injection, schedule: Q01DX001 (ip), vehicle: carboxymethylcellulose (CMC) 97 % of control | dose: 400.0 mg/kg/injection, schedule: Q01DX001 (ip), vehicle: carboxymethylcellulose (CMC) 94 % of control

COc1cc(NC(N)=O)cc(OC)c1OC
inactive: dose: 100.0 mg/kg/injection, schedule: Q01DX009 (ip), vehicle: saline sonified 101 % of control | [12] 99 % of control | dose: 200.0 mg/kg/injection, schedule: Q01DX009 (ip), vehicle: saline sonified 95 % of control | [13] 94 % of control | dose: 400.0 mg/kg/injection, schedule: Q01DX009 (ip), vehicle: saline sonified 101 % of control | [14] 99 % of control

C#CCSC(=S)OCC
inactive: dose: 100.0 mg/kg/injection, schedule: Q04DX003 (ip), vehicle: other 95 % of control | dose: 200.0 mg/kg/injection, schedule: Q04DX003 (ip), vehicle: other 101 % of control

COC1CCC(/C(C#N)=C/C2CCC3OCOC3C2)CC1 (centres undefined)
inactive: [10] 101 % of control | [15] 90 % of control | [16] 94 % of control

CC(=O)Nc1ccc(N=Cc2ccc([N+](=O)[O-])s2)cc1
inactive: [4] 100 % of control | [5] 96 % of control | [6] 98 % of control

CC(CN(CCNc1ccccc1)c1ccccc1)c1ccccc1 (centres undefined)
inactive: dose: 25.0 mg/kg/injection, schedule: Q01DX009 (ip), vehicle: other 102 % of control | dose: 50.0 mg/kg/injection, schedule: Q01DX009 (ip), vehicle: other 105 % of control | dose: 100.0 mg/kg/injection, schedule: Q01DX009 (ip), vehicle: other 100 % of control | [11] 100 % of control | dose: 200.0 mg/kg/injection, schedule: Q01DX009 (ip), vehicle: other 104 % of control | dose: 200.0 mg/kg/injection, schedule: Q04DX003 (ip), vehicle: saline 92 % of control | dose: 300.0 mg/kg/injection, schedule: Q01DX009 (ip), vehicle: other 96 % of control | dose: 400.0 mg/kg/injection, schedule: Q04DX003 (ip), vehicle: saline 86 % of control

CCOC(=O)CCSCCC(=O)OCC
inactive: dose: 100.0 mg/kg/injection, schedule: Q01DX001 (ip), vehicle: saline with Tween-80 109 % of control | dose: 200.0 mg/kg/injection, schedule: Q01DX001 (ip), vehicle: saline with Tween-80 101 % of control | dose: 400.0 mg/kg/injection, schedule: Q01DX001 (ip), vehicle: saline with Tween-80 101 % of control

Cc1ccc(NC(=O)Nc2cc([N+](=O)[O-])ccc2C)cc1C
inactive: [12] 88 % of control | [13] 88 % of control | [14] 96 % of control

O=S1(=O)CC(O)C(Br)C1Br (centres undefined)
inactive: [1] 96 % of control | [2] 104 % of control | [3] 94 % of control

CCOc1ccc(OC/C=C(\C)CC/C=C(/C)CC)cc1
inactive: [10] 96 % of control | [15] 99 % of control | [16] 108 % of control
